# Reference: patent US7825094B2, “Method of treatment for cancers associated with elevated HER 2 levels” (Sloan-Kettering Institute for Cancer Research, priority 2001, dated 2010)
# Assays:
# [1] = test system: cyclin D1, cyclin D3, cdk4, AKT, Raf-1 in MCF-7 cells; assay: Immunoblot of protein expression in MCF-7 (HER-2 negative) cells; assay type: cell-based, human; settings: 50 nM or 500 nM
# Procedure: (§1) Levels of mitotic cyclin expression, HER-2 expression, AKT expression and Raf1 expression in MCF-7 (HER-2 negative) or BT-474 (HER-2+++) cell lines treated with CNF-101 (17-AAG) were assessed using immunoblot analysis. Immunoblot analysis of lysates from cells treated with either 50 nM or 500 nM CNF-101 (17-AAG) were analyzed by Western blot using anti-cyclin D1, anti-cyclin D3, anti-cyclin cdk4, anti-AKT or anti-Raf1 antibodies. All antibodies were obtained from Santa Cruz Biotechnology (Santa Cruz, Calif., USA). Treated cells were harvested, washed with PBS and lysed in NP40 lysis buffer (50 mM Tris pH7.4, 1% NP40,150 mM NaCl, 40 mM NaF. 1 mM Na3VO4, 1 mM phenylmethylsulfonylfluoride, and 10 μg/ml each of leupeptin, aprotinin and soybean trypsin inhibitor) for 30 min on ice. Lysates were centrifuged at 15,000×g for 10 min and protein concentration determined by bicinchoninic acid protein assay (Pierce). Equal amounts of total protein were resolved by SDS-PAGE and transferred onto Immobilon PVDF membranes (Millipore) by electroblotting. Blots were blocked overnight in 5% nonfat milk in TBS-T (0.1% Tween-20 TBS, 10 mM Tris pH 7.4, 150 mM NaCl) at 4° C. and subsequently probed with either anti-HER-2, anti-cylin D1, anti-cyclin D3, anti cdk4, anti-AKT or anti-Raf1 antibodies. Following incubation with HRP-conjugated secondary antibodies, proteins were detected by chemiluminescence (Amersham).
# [2] = test system: AKT kinase activity in HER-2-low MCF-7 line; assay: AKT kinase activity after immunoprecipitation (GSK-1 substrate, 32-P ATP) in MCF-7 cells; assay type: cell-based, human; settings: ten times 100 nM
# Procedure: (§2) Cells were treated with 1 uM CNF-101 (17-AAG) for 24 hrs, washed, harvested and lysed in NP-40. Lysates were resolved by SDS-PAGE, transferred onto Immobilon PVDF membranes, blocked in 5% nonfat milk and probed with antibodies to AKT or […] phosphorylated AKT (phospho-AKT) from Upstate. Following incubation with HRP-conjugated secondary antibodies, proteins were detected using chemiluminescnce (Amersham). AKT kinase activity was assessed following immunopreciptation by a standard kinase assay with the recombinant AKT substrate protein glycogen synthase kinase-1 (GSK-1) and 32-P labelled ATP. AKT is a key kinase in tumor cells.
# [3] = test system: AKT and phospho-AKT in HER-2+++ and HER-2- cells; assay: Western blot of AKT and phospho-AKT in HER-2+++ and HER-2- cells; assay type: cell-based, human; settings: 1 uM, 24 hrs
# Procedure: as §2
# [4] = test system: human cancer cell lines BT-474, SKBR-3, SKOV-3, MCF-Her2, MCF-7, MDA-468, MDA-231, T47-D, MDA435; assay: Antiproliferative effect on cancer cell lines expressing different amounts of HER-2 (ethidium bromide nuclei staining, flow cytometry); assay type: cell-based
# Procedure: Human cancer cell lines BT-474, SKBR-3, SKOV-3, MCF-Her2, MCF-7, MDA-468, MDA-231, T47-D, and MDA435 were obtained from the American Type Culture Collection (“ATCC;” Manassas, Va., USA). Cell lines were maintained in […] medium, supplemented with 5% fetal calf serum (BRL), 2 mM glutamine, and 50 U/ml each of penicillin and streptomycin, at 37° C. in 5% CO2.
# Cells were treated for 24 hours with CNF-101 (17-AAG) at concentrations of 1 to 1000 nM. Following treatment, the nuclei were stained with ethidium bromide and analyzed by flow cytometry. Nuclei were isolated for flow cytometry assays, stained with ethidium bromide and analyzed using a Becton Dickinson fluorescence-activated cell sorter. Statistical data was obtained using Multicycle program software.
# Those cell lines expressing the highest levels of HER-2 were the most sensitive to CNF-101 (17-AAG) (FIG. 1).
# [5] = test system: AKT kinase activity in high HER-2 (SKBr3) cells; assay: AKT kinase activity after immunoprecipitation (GSK-1 substrate, 32-P ATP) in SKBr3 cells; assay type: cell-based, human; settings: 100 nM
# Procedure: as §2, with “Lysates” for “Cells were treated with 1 uM CNF-101 (17-AAG) for 24 hrs, washed, harvested and lysed in NP-40. Lysates”
# [6] = test system: AKT and phospho-AKT in BT-474, SKBR-3, U87, MCF-7, MDA-468 cells; assay: Western blot of AKT and phospho-AKT in a panel of cell lines; assay type: cell-based, human
# Procedure: as §2, with “AKT” for “AKT kinase activity was assessed following immunopreciptation by a standard kinase assay with the recombinant AKT substrate protein glycogen synthase kinase-1 (GSK-1) and 32-P labelled ATP. AKT”
# [7] = test system: HER-2, AKT and phospho-AKT in BT-474 xenografts; assay: Western blot of HER-2, AKT and phospho-AKT in BT-474 breast carcinoma xenografts; assay type: in vivo, Swiss nu/nu mice; settings: 50 mg/kg, intraperitoneally
# Procedure: BT-474 breast tumor cells were implanted subcutaneously on the flank of Swiss nu/nu mice and allowed to become established to a diameter of 5 mm. Animals were treated intraperitoneally with optimal doses of CNF-101 (17-AAG) and tumors removed at the indicated times thereafter. Tumor tissue was snap-frozen at the time of removal. For analysis, tissues were rapidly thawed, lysed and assaysed for HER-2, AKT and phospho-AKT by Western blotting.
# [8] = test system: cyclin D1, cyclin D3, cdk4, AKT, Raf-1 in BT-474 cells; assay: Immunoblot of protein expression in BT-474 (HER-2+++) cells; assay type: cell-based, human; settings: 50 nM or 500 nM
# Procedure: as §1
# [9] = HER low expressing cells (MCF-7)
# [10] = 1 uM, 24 hrs, panel of cell lines
# [11] = HER-2 overexpressing cells (BT-474)
compound,measurement,setting,value
"C=CCNC1=C2C[C@@H](C)C[C@H](OC)[C@H](O)[C@@H](C)/C=C(\C)[C@H](OC(N)=O)[C@@H](OC)/C=C\C=C(/C)C(=O)NC(=CC1=O)C2=O [CNF-101 (17-AAG), 17-allylamino-17-demethoxygeldanamycin]",AKT protein level,[1]; [9],not affected
same,cdk4 protein level,[1]; [9],not affected
same,decrease in cyclin D1 protein level,[1]; MCF-7 (low HER-2),not seen
same,decrease in cyclin D3 protein level,[1]; MCF-7 (low HER-2),not seen
same,Raf-1 (HSP90 client protein) level,"[1]; MCF-7, 0, 4, 12, 24 hours",degradation
same,time to cause even partial loss of AKT kinase activity,[2],12 h
same,AKT protein level,[3],does not cause significant loss of the protein
same,phospho-AKT level,[3],disappears from the treated cells
same,growth arrest,"[4]; 24 hours, 1 to 1000 nM, all cell lines tested (FIG. 1)",caused growth arrest in all the cell lines tested
same,difference in sensitivity between congenic pair,[4]; MCF-7 vs. MCF-7/HER-2,10 fold
same,sensitivity of high HER-2 lines versus low HER-2 lines,"[4]; high HER-2: BT-474, SKBR-3, SKOV-3, MDA435, low HER-2: MDA-468, MDA-231, T47D",markedly more sensitive
same,time to complete loss of AKT activity,[5],≤ 3 h
same,AKT protein level,[6]; [10],does not cause significant loss of the protein
same,phospho-AKT level,[6]; [10],disappears from the treated cells
same,AKT activity,"[6]; 1 uM, multiple cell lines",causes loss of AKT activity in multiple cell lines
same,loss of AKT activity in high HER-2 lines versus low HER-2 lines,"[6]; high HER-2: BT-474, SKBR-3, low HER-2: U87, MCF-7, MDA-468",much more rapid and complete loss of AKT activity
same,AKT protein levels in xenograft,[7],remained constant
same,HER-2 protein levels in xenograft,[7],declined
same,"phosphorylated (""active"") AKT protein in xenograft",[7],declined rapidly
same,cyclin D1 protein level,[8]; BT-474,rapid decrease
same,cyclin D3 protein level,[8]; BT-474,rapid decrease
same,Raf-1 (HSP90 client protein) level,"[8]; BT-474, 0, 4, 12, 24 hours",degradation
same,AKT protein level,[8]; [11],not affected
same,cdk4 protein level,[8]; [11],not affected
